The values that follow come from patent publication US20140335210A1, “METHOD AND AGROCHEMICAL COMPOSITION FOR USING LARCH WOOD EXTRACTS IN AGRICULTURE” (FLAVITPURE, INC., priority 2013, published 2014).

Read-outs that look alike come from different tables or passages of the source.

The subject of data set [1] is polar transport of indol-3yl-acetic acid. To be noted: 4-6 h; stimulation of basipetal, inhibition of acropetal transport; cited from earlier work.
Data set [2] has as its system P. expansum. Also on record: reduction of lesion diameters: concentration or dose not given beside the values. The note with it: cited from earlier work; for reduction of lesion diameters: apples Golden Delicious, 16° C. in the dark; for patulin accumulation in apples: in vivo, lesions analyzed by HPLC after 14 days.
For data set [3], the system named is P. expansum. The note with it: in vitro, agarized apple juice medium; cited from earlier work.
Data set [4] relates to Barley (Hordeumvulgare L.) seeds. To be noted: cited from earlier work.
The next data set has as its system Fusarium. The note with it: about 0.60 to 0.70 mg per 100 g dry weight accumulated in the testa of ant18 mutants.
In a further data set the test system is cut seed potatoes. The note with it: cited from earlier work.
Data set [5] deals with dihydrotlavonol 4-reductase (DFR). To be noted: grape cell cultures, addition of compound; cited from earlier work.
Data set [6] relates to vacuolar membrane (H+-ATPase and H+-pyrophosphatase), slow vacuolar (SV) channel. The note with it: cited from earlier work.
For another data set, the system named is cress seedlings. To be noted: biphasic, dose dependent; cited from earlier work.
A further data set deals with white potato tissue. To be noted: biphasic, dose dependent; cited from earlier work.
Data set [7] deals with cyp705a5 mutant phenotype. The note with it: 15 μM in the growth medium; cited from earlier work.
The mark [8] stands for this setting: low-grade seeds soaked in aqueous 10^-4 M.

Take `O=C1/C(=C/c2ccc(O)c(O)c2)Oc2cc(O)ccc21` [sulfuretin]: the “polarity of the transport of indol-3yl-acetic acid” value (from here on “polarity”) in data set [1] is “increased”.

As to `O=c1c(O)c(-c2ccc(O)cc2O)oc2cc(O)cc(O)c12` [morin], the “polarity” value in data set [1] was “increased”.

Regarding `O=c1ccc2ccc(O)cc2o1` [umbelliferone, reference compound], the “reduction of lesion diameters” value in the data set on P. expansum [2] (after 6 days of incubation) is 100%; with P. expansum [2] (after 10 days of incubation), 68%; in the data set on P. expansum [2] (after 14 days of incubation), 38%. For the same molecule, the “patulin accumulation in apples” value in the data set with P. expansum [2] is reported as “no reduction”. Moreover, in the data set on P. expansum [3], the fungal growth result is given as “no inhibition”. For the same molecule, the “reduction of patulin accumulation” value in the data set with P. expansum [3] is recorded as 53%.

Take `O=C1c2c(O)cc(O)cc2OC(c2ccc(O)c(O)c2)C1O` (stereo not drawn) [Dihydroquercetin (taxifolin)]: the “activity of ascorbate peroxidase (AsP)” value in data set [4] ((+DHQ)-plants) is listed as “increased more significantly”. Besides, the “ratio between TBARs content and AsP activity” value in data set [4] (leaves, optimal soil conditions and flooding) is “lower”. Further, in [4] (setting [8]), the “germination rate in comparison with the same seeds soaked in water” value is recorded as “twofold” and the mold on seeds entry is “no mold”. Moreover, the root growth result in data set [4] (seedlings from pretreated seeds vs non-pretreated) is on record as “higher”. Moreover, the shoot growth entry in data set [4] (seedlings from similarly germinated seeds, with vs without pretreatment) is recorded as “did not differ”. The TBARs content entry in [4] (soil flooding, roots and leaves, (+DHQ) vs (-DHQ) seedlings) was “lower”. Also, in the data set on Fusarium, the “resistance of seeds to Fusarium infection” value is given as “extraordinary resistance”. Moreover, in the data set on P. expansum [2] (after 6 days of incubation), the “reduction of lesion diameters” value is recorded as 97%. Besides, the “reduction of lesion diameters” value with P. expansum [2] (after 10 days of incubation) is reported as 71%. In addition, the “reduction of lesion diameters” value in the data set with P. expansum [2] (after 14 days of incubation) is 27%. The “patulin accumulation in apples” value in the data set with P. expansum [2] is “no reduction”. In the data set with P. expansum [3], the fungal growth entry is reported as “no inhibition” and the “reduction of patulin accumulation” value is reported as 48%. Further, the “fungal mold growth on treated seed pieces” value in the data set with cut seed potatoes (incubated in a controlled environment) is “adequately retarded”. Further, the “thickness of the suberized layer formed below the cut surface” value in the data set with cut seed potatoes (treated seed potato tissue) is on record as “increases”. For the same molecule, the “increase in dihydrotlavonol 4-reductase (DFR) activity” value in data set [5] was 10 fold. Moreover, the “active and passive transport systems of the vacuolar membrane” value in data set [6] is “affected”. Besides, the “effect on the membranes of isolated vacuoles” value in data set [6] (isolated vacuoles) is “strong stabilizing effect”. Besides, the “polarity” value in data set [1] is reported as “increased”. In the data set on cress seedlings, the “root growth of cress seedlings” value is recorded as “increased”. The “oxygen consumption of white potato tissue” value with white potato tissue was “stimulated”. Besides, the “phenotype restored, of the wild type gravity response” value in data set [7] is on record as no less than 100%.

With `COc1cc(/C=C/C(=O)O)ccc1O` [ferulic acid], the “polarity” value in data set [1] is given as “increased”.

Consider `C[C@@H]1O[C@@H](O[C@H]2[C@H](Oc3cc(O)c4c(c3)O[C@H](c3ccc(O)cc3)CC4=O)O[C@H](CO)[C@@H](O)[C@@H]2O)[C@H](O)[C@H](O)[C@H]1O` [naringin], for which the “polarity” value in [1] is on record as “increased”.
